According to ChEMBL document CHEMBL5653602, “Biochemical characterization of GSK1070916, a potent and selective inhibitor of Aurora B and Aurora C kinases with an extremely long residence time1” (Biochem J, 2009):
The source made the active and inactive calls. The calls are words filed in the database; no cut-off is given here.

Experiments:
[1] = molecular target: T1, Aurora kinase B/Inner centromere protein (Homo sapiens) (UniProt Q96GD4+Q9NQS7)
Description: Binding affinity to human AurB/INCENP assessed as dissociation half life

[2] = molecular target: T2, Aurora kinase B/Inner centromere protein (Homo sapiens, UniProt Q96GD4); assay: Inhibition of human AurB/INCENP in PBS using Biotin-Ahx-RARRRLSFFFFAKKK-NH2 as substrate incubated for 30 mins in presence of ATP; type: protein-complex assay
T2 sequence (Q96GD4 whole entry): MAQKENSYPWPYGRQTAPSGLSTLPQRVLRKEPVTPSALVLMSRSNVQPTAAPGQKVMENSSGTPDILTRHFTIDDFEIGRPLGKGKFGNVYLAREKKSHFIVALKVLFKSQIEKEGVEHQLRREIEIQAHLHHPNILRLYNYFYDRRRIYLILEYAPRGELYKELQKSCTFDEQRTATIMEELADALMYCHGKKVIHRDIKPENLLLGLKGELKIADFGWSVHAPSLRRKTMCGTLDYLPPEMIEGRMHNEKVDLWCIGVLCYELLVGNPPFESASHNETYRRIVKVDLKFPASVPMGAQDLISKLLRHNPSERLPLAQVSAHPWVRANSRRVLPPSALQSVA
T2 sequence (Q9NQS7 whole entry, further chain): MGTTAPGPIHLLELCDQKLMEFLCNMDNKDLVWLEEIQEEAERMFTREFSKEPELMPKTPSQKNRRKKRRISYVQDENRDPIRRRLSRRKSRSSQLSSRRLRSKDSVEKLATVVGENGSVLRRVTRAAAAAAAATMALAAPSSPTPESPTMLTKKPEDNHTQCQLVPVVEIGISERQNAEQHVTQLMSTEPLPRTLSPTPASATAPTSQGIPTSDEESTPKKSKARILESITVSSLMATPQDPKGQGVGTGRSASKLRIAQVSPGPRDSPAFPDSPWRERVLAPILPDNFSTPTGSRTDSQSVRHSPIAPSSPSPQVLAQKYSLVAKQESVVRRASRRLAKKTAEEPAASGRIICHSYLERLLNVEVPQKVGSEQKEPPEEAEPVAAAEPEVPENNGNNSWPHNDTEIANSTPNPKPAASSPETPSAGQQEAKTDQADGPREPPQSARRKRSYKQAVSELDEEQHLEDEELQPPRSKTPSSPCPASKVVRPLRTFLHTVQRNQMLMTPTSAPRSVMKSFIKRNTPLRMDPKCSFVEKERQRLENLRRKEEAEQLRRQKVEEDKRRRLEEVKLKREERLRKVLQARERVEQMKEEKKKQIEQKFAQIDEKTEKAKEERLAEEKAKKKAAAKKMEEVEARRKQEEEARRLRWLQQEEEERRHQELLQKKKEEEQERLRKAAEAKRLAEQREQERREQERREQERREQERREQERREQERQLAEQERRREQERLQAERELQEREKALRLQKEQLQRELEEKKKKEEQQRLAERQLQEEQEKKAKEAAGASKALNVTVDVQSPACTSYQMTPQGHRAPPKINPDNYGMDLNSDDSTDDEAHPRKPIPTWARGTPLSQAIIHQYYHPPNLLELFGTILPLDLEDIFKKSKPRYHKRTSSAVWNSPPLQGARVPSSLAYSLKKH

Aurora-C/INCENP [3] = molecular target: T3, Aurora-C/INCENP (Homo sapiens, UniProt Q9NQS7+Q9UQB9); assay: Inhibition of human AurC/INCENP in PBS using Biotin-Ahx-RARRRLSFFFFAKKK-NH2 as substrate incubated for 30 mins in presence of ATP; type: protein-complex assay
T3 sequence (Q9UQB9 whole entry): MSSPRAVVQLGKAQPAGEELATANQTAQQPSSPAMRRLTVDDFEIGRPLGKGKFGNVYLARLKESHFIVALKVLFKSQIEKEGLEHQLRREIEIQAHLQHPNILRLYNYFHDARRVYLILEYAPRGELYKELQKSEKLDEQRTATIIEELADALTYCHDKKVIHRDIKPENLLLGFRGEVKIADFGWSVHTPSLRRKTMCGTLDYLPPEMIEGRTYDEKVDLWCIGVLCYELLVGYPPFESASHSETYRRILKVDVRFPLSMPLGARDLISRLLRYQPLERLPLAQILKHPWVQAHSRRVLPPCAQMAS
T3 sequence (Q9NQS7 whole entry): as the sequence (Q9NQS7 whole entry, further chain) above

[4] = molecular target: Vascular endothelial growth factor receptor 1 (Homo sapiens, UniProt P17948); assay: Inhibition of FLT1 (unknown origin)
Sequence of Vascular endothelial growth factor receptor 1 (P17948 whole entry): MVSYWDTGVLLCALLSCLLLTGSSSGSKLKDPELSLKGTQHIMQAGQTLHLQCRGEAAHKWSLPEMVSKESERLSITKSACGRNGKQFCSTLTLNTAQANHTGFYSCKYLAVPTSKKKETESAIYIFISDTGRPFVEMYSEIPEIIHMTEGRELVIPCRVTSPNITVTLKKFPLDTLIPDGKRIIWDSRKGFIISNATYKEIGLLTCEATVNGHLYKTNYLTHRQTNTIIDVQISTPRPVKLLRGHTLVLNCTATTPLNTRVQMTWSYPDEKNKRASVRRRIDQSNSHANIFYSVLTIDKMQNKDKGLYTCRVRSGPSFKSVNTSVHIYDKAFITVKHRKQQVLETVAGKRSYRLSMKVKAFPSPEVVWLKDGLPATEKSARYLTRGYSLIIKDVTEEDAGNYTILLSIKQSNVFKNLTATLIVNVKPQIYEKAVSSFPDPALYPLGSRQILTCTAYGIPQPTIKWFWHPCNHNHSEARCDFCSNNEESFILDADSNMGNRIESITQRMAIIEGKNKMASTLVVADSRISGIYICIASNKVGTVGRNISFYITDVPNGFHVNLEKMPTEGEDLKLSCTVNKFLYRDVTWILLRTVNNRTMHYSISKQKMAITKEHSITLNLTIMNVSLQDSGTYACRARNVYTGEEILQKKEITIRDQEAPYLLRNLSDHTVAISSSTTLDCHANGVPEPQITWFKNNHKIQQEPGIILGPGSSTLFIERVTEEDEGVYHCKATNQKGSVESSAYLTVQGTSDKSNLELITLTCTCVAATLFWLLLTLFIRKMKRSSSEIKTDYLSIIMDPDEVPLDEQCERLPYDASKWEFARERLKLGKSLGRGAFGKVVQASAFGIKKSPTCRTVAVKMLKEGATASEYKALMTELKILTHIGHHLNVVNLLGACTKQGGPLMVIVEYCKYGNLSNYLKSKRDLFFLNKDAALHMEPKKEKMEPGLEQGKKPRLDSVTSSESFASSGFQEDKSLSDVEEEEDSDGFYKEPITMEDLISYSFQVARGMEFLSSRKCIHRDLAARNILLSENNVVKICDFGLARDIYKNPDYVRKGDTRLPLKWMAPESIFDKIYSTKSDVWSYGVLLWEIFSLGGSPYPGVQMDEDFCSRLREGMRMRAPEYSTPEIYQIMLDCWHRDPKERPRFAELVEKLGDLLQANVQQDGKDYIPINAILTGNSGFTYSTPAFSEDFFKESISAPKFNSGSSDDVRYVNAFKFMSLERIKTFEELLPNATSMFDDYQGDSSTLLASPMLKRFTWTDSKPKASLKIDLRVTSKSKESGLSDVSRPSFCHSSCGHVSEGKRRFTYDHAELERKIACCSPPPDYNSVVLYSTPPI

Angiopoietin-1 receptor = Angiopoietin-1 receptor (Homo sapiens, UniProt Q02763); assay: Inhibition of TIE2 (unknown origin)
Sequence of Angiopoietin-1 receptor (Q02763 whole entry): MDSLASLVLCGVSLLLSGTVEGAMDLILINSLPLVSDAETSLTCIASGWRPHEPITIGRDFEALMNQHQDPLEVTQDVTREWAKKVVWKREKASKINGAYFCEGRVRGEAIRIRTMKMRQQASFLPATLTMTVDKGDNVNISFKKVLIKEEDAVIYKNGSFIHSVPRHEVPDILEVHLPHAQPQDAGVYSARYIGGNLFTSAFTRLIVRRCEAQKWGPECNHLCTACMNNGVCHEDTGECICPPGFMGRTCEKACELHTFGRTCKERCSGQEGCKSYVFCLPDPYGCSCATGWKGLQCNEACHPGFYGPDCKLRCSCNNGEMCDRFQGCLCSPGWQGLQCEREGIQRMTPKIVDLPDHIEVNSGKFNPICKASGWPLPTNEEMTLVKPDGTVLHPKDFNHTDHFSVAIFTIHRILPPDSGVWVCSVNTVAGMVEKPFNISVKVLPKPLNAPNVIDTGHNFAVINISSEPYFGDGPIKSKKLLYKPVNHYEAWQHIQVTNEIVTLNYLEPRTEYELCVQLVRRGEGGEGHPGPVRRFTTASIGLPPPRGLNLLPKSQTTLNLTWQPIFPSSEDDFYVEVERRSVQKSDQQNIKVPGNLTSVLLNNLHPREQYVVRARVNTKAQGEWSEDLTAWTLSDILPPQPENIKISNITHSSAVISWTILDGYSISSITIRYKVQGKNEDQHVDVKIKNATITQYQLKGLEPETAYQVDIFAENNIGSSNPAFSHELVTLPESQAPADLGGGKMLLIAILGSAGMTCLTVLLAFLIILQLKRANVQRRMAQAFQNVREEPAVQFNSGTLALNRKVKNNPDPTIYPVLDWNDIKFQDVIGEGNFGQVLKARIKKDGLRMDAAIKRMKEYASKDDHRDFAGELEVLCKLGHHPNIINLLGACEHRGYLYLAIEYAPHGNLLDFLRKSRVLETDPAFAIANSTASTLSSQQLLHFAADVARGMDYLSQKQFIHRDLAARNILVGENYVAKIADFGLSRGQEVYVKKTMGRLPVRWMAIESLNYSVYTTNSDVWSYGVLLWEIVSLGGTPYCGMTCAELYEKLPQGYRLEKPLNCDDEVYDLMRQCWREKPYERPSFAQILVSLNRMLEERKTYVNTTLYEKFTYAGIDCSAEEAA

[5] = molecular target: Serine/threonine-protein kinase SIK1 (Homo sapiens, UniProt P57059); assay: Inhibition of SIK (unknown origin)
Sequence of Serine/threonine-protein kinase SIK1 (P57059 whole entry): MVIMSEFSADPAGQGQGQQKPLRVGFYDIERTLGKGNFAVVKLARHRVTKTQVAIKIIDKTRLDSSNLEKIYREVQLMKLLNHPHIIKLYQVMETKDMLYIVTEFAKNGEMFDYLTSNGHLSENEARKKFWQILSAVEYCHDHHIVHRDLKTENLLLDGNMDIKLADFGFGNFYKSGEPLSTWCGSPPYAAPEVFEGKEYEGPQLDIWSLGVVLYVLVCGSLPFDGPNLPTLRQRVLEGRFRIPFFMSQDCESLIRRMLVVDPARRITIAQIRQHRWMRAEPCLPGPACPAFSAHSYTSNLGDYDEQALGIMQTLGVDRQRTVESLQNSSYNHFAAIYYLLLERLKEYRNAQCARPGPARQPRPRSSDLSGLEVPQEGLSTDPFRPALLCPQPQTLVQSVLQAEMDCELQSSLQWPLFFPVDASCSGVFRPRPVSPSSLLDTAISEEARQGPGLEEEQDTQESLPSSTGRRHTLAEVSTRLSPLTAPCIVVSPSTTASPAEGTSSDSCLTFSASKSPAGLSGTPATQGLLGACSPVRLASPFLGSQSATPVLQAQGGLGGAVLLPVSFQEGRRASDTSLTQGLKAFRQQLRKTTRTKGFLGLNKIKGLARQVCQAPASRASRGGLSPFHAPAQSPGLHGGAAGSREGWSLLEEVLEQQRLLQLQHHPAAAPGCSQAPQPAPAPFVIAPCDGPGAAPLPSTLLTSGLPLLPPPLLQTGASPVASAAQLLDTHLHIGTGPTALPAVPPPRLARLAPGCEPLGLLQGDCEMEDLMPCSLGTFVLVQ

[6] = molecular target: T2, Aurora kinase B/Inner centromere protein; assay: Binding affinity to human AurB/INCENP assessed as inhibition constant using aurora sox peptide as substrate incubated for 60 mins in presence of ATP by fluorescence based assay; type: protein-complex assay
Aurora-C/INCENP [7] = molecular target: T3, Aurora-C/INCENP; assay: Binding affinity to human AurC/INCENP assessed as inhibition constant using aurora sox peptide as substrate incubated for 60 mins in presence of ATP by fluorescence based assay; type: protein-complex assay
[8] = molecular target: T1, Aurora kinase B/Inner centromere protein (Homo sapiens); settings: dose 100.0 nM, time 60.0 min
[9] = molecular target: T1, Aurora kinase B/Inner centromere protein (Homo sapiens); settings: dose 100.0 nM, time 60.0 min; remark: listed apart in the source
[10] = molecular target: Aurora-C/INCENP (Homo sapiens) (UniProt Q9UQB9+Q9NQS7); settings: dose 100.0 nM, time 60.0 min

## CCN(CCCOc1ccc2c(Nc3cc(CC(=O)Nc4cccc(F)c4)[nH]n3)ncnc2c1)CCOP(=O)(O)O
[1]
  T1/2: 15 min

## Cc1cc(Nc2cc(N3CCN(C)CC3)nc(Sc3ccc(NC(=O)C4CC4)cc3)n2)n[nH]1
[1]
  T1/2: 25 min

## CCn1cc(-c2ccnc3[nH]c(-c4cccc(CN(C)C)c4)cc23)c(-c2ccc(NC(=O)N(C)C)cc2)n1 [GSK-1070916]
[2]
  IC50: 3.5 nM
Aurora-C/INCENP [3]
  IC50: 6.5 nM
[4]
  IC50: 42 nM
Angiopoietin-1 receptor
  IC50: 59 nM
[5]
  IC50: 70 nM
[6]
  Ki: 0.38 nM
Aurora-C/INCENP [7]
  Ki: 1.45 nM
[8]
  inhibition: Active
[9]
  T1/2: > 480 min
[10]
  T1/2: 270 min
